According to ChEMBL document CHEMBL4699592, “Nature-Inspired (di)Azine-Bridged Bisindole Alkaloids with Potent Antibacterial In Vitro and In Vivo Efficacy against Methicillin-Resistant Staphylococcus aureus” (J Med Chem, 2020):
Values after ≈ are worked out from the molar mass of the structure shown. Active and inactive are the calls of the source. No cut-off for these calls is given here.

What was measured:
[1] = Selectivity index, ratio of IC50 for cytotoxicity against human THP-1 cells to MIC90 for antibacterial activity against […] Staphylococcus aureus ATCC 700699; format: toxicity, cell-based; details: read-out: Selectivity Index
THP-1 = assay: Cytotoxicity against human THP-1 cells assessed as reduction in cell viability at >=12.5 uM measured after 48 hrs by resazurin dye based fluorescence assay; details: thp-1, 48 h
Enterococcus faecium [2] = assay: Antibacterial activity against vancomycin-resistant Enterococcus faecium ATCC 35667 at 0.78 to 100 uM after 24 hrs by broth microdilution method; format: functional, organism-based; details: dose microM 0.78-100, time 24.0 hrs
Enterococcus faecium [3] = assay: Antibacterial activity against vancomycin-resistant Enterococcus faecium ATCC 700221 at 0.78 to 100 uM after 24 hrs by broth microdilution method; format: functional, organism-based; details: dose microM 0.78-100, time 24.0 hrs
Enterococcus faecalis [4] = assay: Antibacterial activity against Enterococcus faecalis ATCC 51299 at 0.78 to 100 uM after 24 hrs by broth microdilution method; format: functional, organism-based; details: dose microM 0.78-100, time 24.0 hrs
Enterococcus faecalis [5] = assay: Antibacterial activity against Enterococcus faecalis ATCC 29212 at 0.78 to 100 uM after 24 hrs by broth microdilution method; format: functional, organism-based; details: dose microM 0.78-100, time 24.0 hrs
[6] = system: Mycobacterium tuberculosis; assay: Antibacterial activity against Mycobacterium tuberculosis H37Rv at 0.78 to 100 uM after 5 days by resazurin dye based fluorescence assay; format: functional, organism-based; details: dose microM 0.78-100, time 5.0 day
Staphylococcus aureus [7] = assay: Antibacterial activity against […] Staphylococcus aureus ATCC 700699 after 24 hrs by broth microdilution method; format: functional
[8] = Solubility of compound in pH 7.7 PBS buffer; format: physicochemical
[9] = Selectivity index, ratio of IC50 for cytotoxicity against human MRC5 cells to MIC90 for antibacterial activity against […] Staphylococcus aureus ATCC 700699; format: toxicity, cell-based; details: read-out: Selectivity Index
HEK293 = assay: Cytotoxicity against HEK293 cells assessed as reduction in cell viability at >12.5 uM measured after 48 hrs by resazurin dye based fluorescence assay; details: human, hek293, 48 h
HepG2 = assay: Cytotoxicity against human HepG2 cells assessed as reduction in cell viability at >12.5 uM measured after 48 hrs by resazurin dye based fluorescence assay; details: hepg2, 48 h
[10] = Cytotoxicity against human CLS-54 cells assessed as reduction in cell viability at >12.5 uM measured after 48 hrs by resazurin dye based fluorescence assay; details: cls-54, 48 h
Erythrocyte = assay: Hemolytic activity against sheep erythrocytes up to 100 uM measured after 1 hr; format: ADME, cell-based, Ovis aries
Acinetobacter baumannii [11] = assay: Antibacterial activity against Acinetobacter baumannii ATCC BAA-1605 after 24 hrs by broth microdilution method; format: functional
Escherichia coli [12] = assay: Antimicrobial activity against Escherichia coli ATCC BAA 2469 after 24 hrs by broth microdilution assay; format: functional
Pseudomonas aeruginosa [13] = assay: Synergistic antibacterial activity against Pseudomonas aeruginosa ATCC 27853 assessed as FIC after 24 hrs in presence of colistin by checkerboard assay relative to test compound MIC; format: functional
Acinetobacter baumannii [14] = assay: Synergistic antibacterial activity against Acinetobacter baumannii ATCC BAA-1605 assessed as FIC after 24 hrs in presence of colistin by checkerboard assay relative to test compound MIC; format: functional
Escherichia coli [15] = assay: Synergistic antimicrobial activity against Escherichia coli ATCC BAA 2469 assessed as FIC after 24 hrs in presence of colistin by checkerboard assay relative to test compound MIC; format: functional
Klebsiella pneumoniae [16] = assay: Antibacterial activity against Klebsiella pneumoniae ATCC 700603 after 24 hrs by broth microdilution method; format: functional
Klebsiella pneumoniae [17] = assay: Synergistic antibacterial activity against Klebsiella pneumoniae ATCC 700603 assessed as FIC after 24 hrs in presence of colistin by checkerboard assay relative to colistin; format: functional
Pseudomonas aeruginosa [18] = assay: Synergistic antibacterial activity against Pseudomonas aeruginosa ATCC 27853 assessed as FIC after 24 hrs in presence of colistin by checkerboard assay relative to colistin; format: functional
Acinetobacter baumannii [19] = assay: Synergistic antibacterial activity against Acinetobacter baumannii ATCC BAA-1605 assessed as FIC after 24 hrs in presence of colistin by checkerboard assay relative to colistin; format: functional
Escherichia coli [20] = assay: Synergistic antimicrobial activity against Escherichia coli ATCC BAA 2469 assessed as FIC after 24 hrs in presence of colistin by checkerboard assay relative to colistin; format: functional
Klebsiella pneumoniae [21] = assay: Synergistic antibacterial activity against Klebsiella pneumoniae ATCC 700603 assessed as FICI after 24 hrs in presence of colistin by checkerboard assay; format: functional
Pseudomonas aeruginosa [22] = assay: Synergistic antibacterial activity against Pseudomonas aeruginosa ATCC 27853 assessed as FICI after 24 hrs in presence of colistin by checkerboard assay; format: functional
Escherichia coli [23] = assay: Synergistic antimicrobial activity against Escherichia coli ATCC BAA 2469 assessed as FICI after 24 hrs in presence of colistin by checkerboard assay; format: functional
Staphylococcus aureus [24] = assay: Bactericidal activity against […] Staphylococcus aureus ATCC 700699 assessed as colony forming units at 5 fold MIC measured after 24 hrs by time kill assay; format: functional
Staphylococcus aureus [25] = assay: Antibacterial activity against vancomycin-sensitive Staphylococcus aureus T144 infected in Balb/c mouse assessed as increase in wound healing at 5 mg/kg applied topically measured daily for 12 days by microscopic analysis; format: functional, organism-based; details: time 12.0 day
Staphylococcus aureus [26] = assay: Antibacterial activity against vancomycin-sensitive Staphylococcus aureus T144 infected in Balb/c mouse assessed as reduction in bacterial burden at 5 mg/kg applied topically measured after 12 days by colony counting method; format: functional, organism-based; details: time 12.0 day
[27] = Solubility of compound in pH 7.7 DMSO:PBS solution; format: physicochemical; details: buffer
Staphylococcus aureus [28] = assay: Antibacterial activity against methicillin-resistant Staphylococcus aureus USA300 LAC at 0.15 to 25 uM incubated for 24 hrs under low glucose medium by resazurin dye based fluorescence assay; format: functional, organism-based; details: dose microM 0.15-25, time 24.0 hrs
Staphylococcus aureus [29] = assay: Antibacterial activity against methicillin-resistant pyruvate kinase deficient Staphylococcus aureus USA300 LAC at 0.15 to 25 uM incubated for 24 hrs under low pyruvate containing medium by resazurin dye based fluorescence assay; format: functional, organism-based; details: dose microM 0.15-25, time 24.0 hrs
Staphylococcus aureus [30] = assay: Inhibition of Staphylococcus aureus ATCC 700699 N-terminal His6-tagged pyruvate kinase expressed in Escherichia coli NiCo21(DE3) at 12.5 uM using phosphoenolpyruvate as substrate measured for 5 mins by LDH-coupled assay
Cell membrane [31] = assay: Induction of cell membrane permeabilization in methicillin sensitive Staphylococcus aureus ATCC 29213 at 5 fold MIC measured after 30 mins by propidium iodide/DAPI staining based fluorescence microscopic analysis; format: subcellular
Cell membrane [32] = assay: Induction of cell membrane permeabilization in methicillin resistant Staphylococcus aureus ATCC 700699 at 5 fold MIC measured at 5 mins interval for 2 hrs by propidium iodide staining based fluorescence assay
Cell membrane [33] = assay: Induction of cell membrane permeabilization in GFP-expressing Staphylococcus aureus ATCC 700699 assessed as increase in cellular ATP leakage at 5 fold MIC measured after 0.5 hrs by Bactiter-glo assay; format: subcellular
Cell membrane [34] = assay: Induction of cell membrane permeabilization in GFP-expressing Staphylococcus aureus ATCC 700699 assessed as increase in GFP efflux at 5 fold MIC measured after 6 hrs by fluorescence assay
Staphylococcus aureus [35] = assay: Induction of cell lysis in Staphylococcus aureus ATCC 700699 assessed as decrease in turbidity at 8 fold MIC measured after 2 hrs by photometric method; format: functional, organism-based

Compound: Clc1ccc2[nH]cc(-c3cccc(-c4c[nH]c5ccc(Cl)cc45)n3)c2c1
- selectivity ratio [1]: 32
- Activity (THP-1): Toxic
- Activity (Enterococcus faecium [2]): Active
- Activity (Enterococcus faecium [3]): Active
- Activity (Enterococcus faecalis [4]): Active
- Activity (Enterococcus faecalis [5]): Active
- Activity [6]: Active
- MIC90 (Staphylococcus aureus [7]): 0.2 µM (≈ 0.0757 µg/mL)
- solubility [8]: Insoluble
- selectivity ratio [9]: 32
- Activity (HEK293): Toxic
- Activity (HepG2): Toxic
- Activity [10]: Toxic
- Activity (Erythrocyte): Non-Toxic
- MIC (Acinetobacter baumannii [11]): > 100 µM
- MIC (Escherichia coli [12]): > 100 µM
- FIC (Pseudomonas aeruginosa [13]): <=0.0625
- FIC (Acinetobacter baumannii [14]): <=0.0625
- FIC (Escherichia coli [15]): <=0.0313
- MIC (Klebsiella pneumoniae [16]): > 100 µM
- FIC (Klebsiella pneumoniae [17]): 0.125
- FIC (Pseudomonas aeruginosa [18]): 0.5
- FIC (Acinetobacter baumannii [19]): 0.25
- FIC (Escherichia coli [20]): 0.064
- fractional inhibitory concentration index (FICI) (Klebsiella pneumoniae [21]): <=0.25
- fractional inhibitory concentration index (FICI) (Pseudomonas aeruginosa [22]): <=0.5625
- fractional inhibitory concentration index (FICI) (Escherichia coli [23]): <=0.0953
- Activity (Staphylococcus aureus [24]): <10 CFU/ml
- Activity (Staphylococcus aureus [25]): Active
- Activity (Staphylococcus aureus [26]): Active
- solubility [27]: Insoluble
- Activity (Staphylococcus aureus [28]): Active
- Activity (Staphylococcus aureus [29]): Active
- inhibition (Staphylococcus aureus [30]): inactive
- Activity (Cell membrane [31]): Active
- Activity (Cell membrane [32]): Active
- Activity (Cell membrane [33]): Active
- Activity (Cell membrane [34]): Active
- Activity (Staphylococcus aureus [35]): inactive
